Assay results from ChEMBL document CHEMBL1201862, “PubChem BioAssay data set” (2004).
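Protocol summary: plate cells (96-well), add compound at 5 concentrations, incubate 48 h, interpolate endpoints linearly. GI50 is the concentration that inhibits growth by half.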 Active and inactive are the calls of the source. Cut-off read from the data, not from the text of the source: active = GI50 up to about 1.1 µM and inactive = higher.

Key:
Experiment in all cases: DTP human tumour cell line panel, 48 h
[1] = test system: 786-0
[2] = test system: A549
[3] = test system: ACHN
[4] = test system: BT-549
[5] = test system: CAKI-1
[6] = test system: CCRF-CEM
[7] = test system: COLO 205
[8] = test system: DU-145
[9] = test system: EKVX
[10] = test system: HCC 2998
[11] = test system: HCT-116
[12] = test system: HCT-15
[13] = test system: HL-60
[14] = test system: HOP-62
[15] = test system: HT-29
[16] = test system: Hs-578T
[17] = test system: IGROV-1
[18] = test system: K562
[19] = test system: KM12
[20] = test system: LOX IMVI
[21] = test system: M14
[22] = test system: MCF7
[23] = test system: MDA-MB-231
[24] = test system: MDA-MB-435
[25] = test system: MDA-N
[26] = test system: MOLT-4
[27] = test system: Malme-3M
[28] = test system: NCI-H226
[29] = test system: NCI-H23
[30] = test system: NCI-H460
[31] = test system: NCI-H522
[32] = test system: NCI/ADR-RES
[33] = test system: OVCAR-3
[34] = test system: OVCAR-4
[35] = test system: OVCAR-5
[36] = test system: OVCAR-8
[37] = test system: PC-3
[38] = test system: RPMI-8226
[39] = test system: RXF 393
[40] = test system: SF-268
[41] = test system: SF-295
[42] = test system: SF-539
[43] = test system: SK-MEL-28
[44] = test system: SK-MEL-2
[45] = test system: SK-MEL-5
[46] = test system: SK-OV-3
[47] = test system: SN12C
[48] = test system: SNB-19
[49] = test system: SNB-75
[50] = test system: SR
[51] = test system: SW-620
[52] = test system: T47D
[53] = test system: TK-10
[54] = test system: U-251
[55] = test system: UACC-257
[56] = test system: UACC-62
[57] = test system: UO-31
[58] = test system: HOP-92

CN(c1ccc(Cl)cc1)S(=O)(=O)c1ccccc1
GI50 [1]: > 100 µM (inactive)
GI50 [2]: 72.4 µM (inactive)
GI50 [3]: > 100 µM (inactive)
GI50 [4]: 32 µM (inactive)
GI50 [5]: 51.3 µM (inactive)
GI50 [6]: 46.2 µM (inactive)
GI50 [7]: 47.2 µM (inactive)
GI50 [8]: > 100 µM (inactive)
GI50 [9]: 37.6 µM (inactive)
GI50 [10]: 84.1 µM (inactive)
GI50 [11]: 37.5 µM (inactive)
GI50 [12]: 52.2 µM
GI50 [13]: 15 µM (inactive)
GI50 [14]: 71.9 µM (inactive)
GI50 [15]: 42.3 µM (inactive)
GI50 [16]: > 100 µM (inactive)
GI50 [17]: > 100 µM (inactive)
GI50 [18]: 36.8 µM (inactive)
GI50 [19]: 40.8 µM (inactive)
GI50 [20]: 42.8 µM (inactive)
GI50 [21]: 45.1 µM (inactive)
GI50 [22]: 52.4 µM (inactive)
GI50 [23]: 35.4 µM (inactive)
GI50 [24]: 41.3 µM (inactive)
GI50 [25]: 64.9 µM (inactive)
GI50 [26]: 28 µM (inactive)
GI50 [27]: > 100 µM (inactive)
GI50 [28]: 30.4 µM (inactive)
GI50 [29]: 30.8 µM (inactive)
GI50 [30]: 43.1 µM (inactive)
GI50 [31]: 76.7 µM (inactive)
GI50 [32]: 36 µM (inactive)
GI50 [33]: 64.3 µM (inactive)
GI50 [34]: 77.1 µM (inactive)
GI50 [35]: 52.8 µM (inactive)
GI50 [36]: 44.6 µM (inactive)
GI50 [37]: 21.6 µM (inactive)
GI50 [38]: 42.3 µM (inactive)
GI50 [39]: 11.3 µM (inactive)
GI50 [40]: 49 µM (inactive)
GI50 [41]: 65.3 µM (inactive)
GI50 [42]: 43 µM (inactive)
GI50 [43]: 54.8 µM (inactive)
GI50 [44]: > 100 µM (inactive)
GI50 [45]: 18.7 µM (inactive)
GI50 [46]: 78.5 µM (inactive)
GI50 [47]: > 100 µM (inactive)
GI50 [48]: 97.7 µM (inactive)
GI50 [49]: 61.4 µM (inactive)
GI50 [50]: 32.1 µM (inactive)
GI50 [51]: 85.5 µM (inactive)
GI50 [52]: 34.2 µM (inactive)
GI50 [53]: 65.6 µM (inactive)
GI50 [54]: 42.9 µM (inactive)
GI50 [55]: > 100 µM (inactive)
GI50 [56]: 48.4 µM (inactive)
GI50 [57]: 42 µM (inactive)

Clc1ccc(Cc2nc3ccccc3nc2-c2cccc(Cl)c2)cc1
GI50 [1]: 1.84 µM (inactive)
GI50 [2]: 15.6 µM (inactive)
GI50 [3]: 1.93 µM (inactive)
GI50 [4]: 4.49 µM (inactive)
GI50 [5]: 2.73 µM (inactive)
GI50 [6]: 0.0311 µM (active)
GI50 [7]: 2.8 µM (inactive)
GI50 [8]: 14.2 µM (inactive)
GI50 [9]: 17.5 µM (inactive)
GI50 [10]: 1.85 µM (inactive)
GI50 [11]: 1.72 µM (inactive)
GI50 [12]: 1.66 µM
GI50 [13]: 2.51 µM (inactive)
GI50 [14]: 17.8 µM (inactive)
GI50 [58]: 1.7 µM (inactive)
GI50 [15]: 2.61 µM (inactive)
GI50 [16]: 3.47 µM (inactive)
GI50 [17]: 1.95 µM (inactive)
GI50 [18]: 1.94 µM (inactive)
GI50 [19]: 3.48 µM (inactive)
GI50 [20]: 1.95 µM (inactive)
GI50 [21]: 2.43 µM (inactive)
GI50 [22]: 2.92 µM (inactive)
GI50 [23]: 2.47 µM (inactive)
GI50 [24]: 1.95 µM (inactive)
GI50 [25]: 2.28 µM (inactive)
GI50 [26]: 2.06 µM (inactive)
GI50 [27]: 2.25 µM (inactive)
GI50 [28]: 20.3 µM (inactive)
GI50 [29]: 13.5 µM (inactive)
GI50 [30]: 16.3 µM (inactive)
GI50 [31]: 1.61 µM (inactive)
GI50 [32]: 3.1 µM (inactive)
GI50 [33]: 4.21 µM (inactive)
GI50 [34]: 1.51 µM (inactive)
GI50 [35]: 7.38 µM (inactive)
GI50 [36]: 3.56 µM (inactive)
GI50 [37]: 2.26 µM (inactive)
GI50 [38]: 0.405 µM (active)
GI50 [39]: 2.04 µM (inactive)
GI50 [40]: 18.3 µM (inactive)
GI50 [41]: 17.1 µM (inactive)
GI50 [42]: 2.25 µM (inactive)
GI50 [44]: 3.24 µM (inactive)
GI50 [45]: 4.91 µM (inactive)
GI50 [46]: 17.2 µM (inactive)
GI50 [47]: 2.94 µM (inactive)
GI50 [48]: 1.8 µM (inactive)
GI50 [50]: 1.54 µM (inactive)
GI50 [51]: 1.61 µM (inactive)
GI50 [52]: 3.35 µM (inactive)
GI50 [53]: 12.3 µM (inactive)
GI50 [54]: 4.68 µM (inactive)
GI50 [55]: 13.8 µM (inactive)
GI50 [56]: 1.86 µM (inactive)
GI50 [57]: 1.78 µM (inactive)

CCCCCCCCCCCCCCCCP(=O)(O)OP(=O)(O)OCC1OC(n2cnc3c(N)ncnc32)C(O)C1O (stereo not drawn)
GI50 [1]: 22.8 µM (inactive)
GI50 [2]: 33.5 µM (inactive)
GI50 [3]: 26.7 µM (inactive)
GI50 [4]: 42.4 µM (inactive)
GI50 [5]: 28.7 µM (inactive)
GI50 [6]: 29.6 µM (inactive)
GI50 [7]: 32.7 µM (inactive)
GI50 [8]: 46.9 µM (inactive)
GI50 [9]: 92 µM (inactive)
GI50 [10]: 22.5 µM (inactive)
GI50 [11]: 21.5 µM (inactive)
GI50 [12]: 23.8 µM
GI50 [13]: 35.4 µM (inactive)
GI50 [14]: 19.5 µM (inactive)
GI50 [58]: 21.4 µM (inactive)
GI50 [15]: 20.3 µM (inactive)
GI50 [16]: 26.4 µM (inactive)
GI50 [17]: 16.3 µM (inactive)
GI50 [18]: 25.8 µM (inactive)
GI50 [19]: 26.1 µM (inactive)
GI50 [20]: 27.4 µM (inactive)
GI50 [21]: 27.5 µM (inactive)
GI50 [22]: 22.6 µM (inactive)
GI50 [23]: 35.1 µM (inactive)
GI50 [24]: 30.6 µM (inactive)
GI50 [25]: 43.4 µM (inactive)
GI50 [26]: 17.3 µM (inactive)
GI50 [27]: 22.2 µM (inactive)
GI50 [28]: 20.9 µM (inactive)
GI50 [29]: 26.8 µM (inactive)
GI50 [30]: 24.5 µM (inactive)
GI50 [31]: 22.1 µM (inactive)
GI50 [32]: 31.1 µM (inactive)
GI50 [33]: 32.2 µM (inactive)
GI50 [34]: 36.3 µM (inactive)
GI50 [35]: 15.5 µM (inactive)
GI50 [36]: 22 µM (inactive)
GI50 [37]: 20.7 µM (inactive)
GI50 [40]: 30.3 µM (inactive)
GI50 [42]: 19.1 µM (inactive)
GI50 [43]: 35.7 µM (inactive)
GI50 [44]: 42.5 µM (inactive)
GI50 [45]: 29 µM (inactive)
GI50 [46]: 28.6 µM (inactive)
GI50 [47]: 20.8 µM (inactive)
GI50 [48]: 20 µM (inactive)
GI50 [49]: 20.5 µM (inactive)
GI50 [50]: 45.5 µM (inactive)
GI50 [51]: 29 µM (inactive)
GI50 [52]: 82.6 µM (inactive)
GI50 [53]: 15.6 µM (inactive)
GI50 [54]: 20 µM (inactive)
GI50 [55]: 23.7 µM (inactive)
GI50 [56]: 24.3 µM (inactive)
GI50 [57]: 15.8 µM (inactive)
